Source: patent publication EP1714638A1, “Cosmetic deodorant composition comprising a combination of zinc salicylate or a derivative thereof with an aluminium salt antiperspirant active” (L'ORÉAL, priority 2005, dated 2006)

Experiment: Deodorant efficacy test: odour intensity of incubated axillary sweat rated by an expert panel
Set-up: species or system humaine
Settings: 24 heures d'incubation à 37°C, versus control sweat without active, scale 0-4
Description: Des recueils de sueur axillaire sont effectués en sauna sur 6 volontaires, les échantillons de sueur individuelle, conservés dans la glace pendant quelques heures, sont alors pratiquement inodores. Ils sont ensuite mélangés et répartis en aliquots de 1 ml. Les actifs sont rajoutés à ces aliquots, puis mis à incuber à l'étuve 37°C. Après 24 heures d'incubation, un jury d'experts évalue l'intensité de l'odeur comparativement à un échantillon témoin : 1 ml de sueur incubée sans ajout d'actif. L'intensité est évaluée sur une échelle de 0 (pas d'odeur) à 4 (très forte odeur).
Les résultats sont exprimés en % de variation de l'intensité de l'odeur comparativement à cet échantillon de sueur témoin (moyenne des % de variation à T24h). Δ = ((intensité odeur de l'échantillon témoin−intensité odeur de l'échantillon avec actif))/(intensité odeur de l'échantillon témoin) × 100 [formula]

## Oc1cc(Cl)ccc1Oc1ccc(Cl)cc1Cl [(B), 2,4,4'-trichloro-2'-hydroxydiphényléther]
0,4 mg MA/ml de sueur
  % de diminution de l'intensité de l'odeur: -49%

## CCCCCC[C@@H](O)C/C=C\CCCCCCCC(=O)[O-].CCCCCC[C@@H](O)C/C=C\CCCCCCCC(=O)[O-].[Zn+2] [(C), Ricinoleate de zinc]
0,3 mg MA/ml de sueur
  % de diminution de l'intensité de l'odeur: -4%

## Aluminium chlorohydrate [ACH]
0,1 mg MA/ml de sueur
  % de diminution de l'intensité de l'odeur: -35%

## Salicylate de zinc [(A)]
0,1 mg MA/ml de sueur
  % de diminution de l'intensité de l'odeur: -21%
